US20060292639A1, “Splice variant of the vanilloid receptor VR1A” (Adolor Corporation, priority 2004, published 2006)
Read-outs that look alike come from different tables or passages of the source.

Tests used:
human DRG VR1 = target: T1, human DRG VR1 (Homo sapiens, UniProt Q8NER1, I585V/K332R/M315I); assay: Ca2+ influx assay, stable cell line expressing VR1; assay type: cell-based; settings: for IC50: VR1 stable cell line, N=4, read-out: IC50 Capsazepine
T1 construct: The two primers were designed to amplify the entire coding region; expressed in transfected cells; CHO is stated only for the VR1A construct
T1 sequence (Q8NER1 whole entry M315I/K332R/I585V): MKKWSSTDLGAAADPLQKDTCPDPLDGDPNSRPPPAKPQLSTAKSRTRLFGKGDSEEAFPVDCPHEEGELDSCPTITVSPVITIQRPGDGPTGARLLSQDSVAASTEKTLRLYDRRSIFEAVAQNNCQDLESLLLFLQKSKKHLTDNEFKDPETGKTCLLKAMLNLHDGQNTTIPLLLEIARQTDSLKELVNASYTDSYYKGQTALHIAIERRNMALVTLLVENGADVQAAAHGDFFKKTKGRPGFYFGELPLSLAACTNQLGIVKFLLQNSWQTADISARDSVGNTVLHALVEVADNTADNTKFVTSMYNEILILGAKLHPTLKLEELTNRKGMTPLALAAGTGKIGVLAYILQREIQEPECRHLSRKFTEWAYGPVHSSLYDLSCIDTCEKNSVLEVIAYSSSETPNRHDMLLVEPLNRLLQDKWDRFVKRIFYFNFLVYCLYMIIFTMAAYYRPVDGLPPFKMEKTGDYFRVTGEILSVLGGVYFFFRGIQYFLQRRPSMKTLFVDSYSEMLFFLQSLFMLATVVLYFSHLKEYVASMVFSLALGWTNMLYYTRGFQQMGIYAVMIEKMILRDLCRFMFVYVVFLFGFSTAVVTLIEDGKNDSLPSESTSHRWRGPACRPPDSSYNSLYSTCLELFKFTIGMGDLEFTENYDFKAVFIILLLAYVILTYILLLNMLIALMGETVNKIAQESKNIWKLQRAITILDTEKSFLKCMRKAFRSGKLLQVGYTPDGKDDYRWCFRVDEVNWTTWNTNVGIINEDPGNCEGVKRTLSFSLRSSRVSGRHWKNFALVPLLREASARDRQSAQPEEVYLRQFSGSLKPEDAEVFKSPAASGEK
Protocol: (§1) B. Generation of a stable cell line: The VR1A construct was transfected into 80-90% confluent cultures of CHO cells grown in F12 media containing 10% fetal bovine serum (Hyclone Laboratories). After 48 hours, cells were transferred to selection medium (growth medium containing 1 mg/ml of G418) and 15 days later individual G418 resistant foci were isolated and expanded. In order to identify a functional cell line, the expanded cells were plated in a 96 well plate and grown to confluency. […] Functional clones were retested, expanded and cryopreserved.
(§2) C. Calcium influx assay: The stable cell lines, expressing human DRG VR1 and human pancreas VR1A, were seeded the day before the assay at 40,000 cells/well density in 96 well black clear bottom assay plates (Corning Inc., Corning, N.Y.). On the day of the assay, the medium of cell plates was changed to 0.2 ml of 1× Hanks' balanced salt solution (Invitrogen, Carlsbad, Calif.) containing 20 mM HEPES, pH 7.4, 1.3 mM freshly made probenecid and 3 μM Fluo-3AM (Molecular Devices, Sunnyvale, Calif.). The cell plates were incubated at 37° C. for one hour and left at room temperature for 30 minutes. Serial dilutions of agonist compounds, starting at 100 μM, were set up in 96 well plates and subsequently used for the analysis. Both plates were loaded to the FlexStation in order to run the assay. The excitation wavelength was 485 nM and the emission wavelength was 583 nM.

human pancreas VR1A = target: T2, human pancreas VR1A (Homo sapiens, UniProt Q8NER1, I585V/M315I/M552V); assay: Ca2+ influx assay, stable cell line expressing VR1A; assay type: cell-based
T2 construct: VR1A codes for a VR1-like protein, 837 amino acids long, with 148 unique residues at the N-terminal end; expressed in transfected cells; host or cells: CHO
T2 sequence (Q8NER1 1-837 isoform Q8NER1-3 M313I/M550V/I583V): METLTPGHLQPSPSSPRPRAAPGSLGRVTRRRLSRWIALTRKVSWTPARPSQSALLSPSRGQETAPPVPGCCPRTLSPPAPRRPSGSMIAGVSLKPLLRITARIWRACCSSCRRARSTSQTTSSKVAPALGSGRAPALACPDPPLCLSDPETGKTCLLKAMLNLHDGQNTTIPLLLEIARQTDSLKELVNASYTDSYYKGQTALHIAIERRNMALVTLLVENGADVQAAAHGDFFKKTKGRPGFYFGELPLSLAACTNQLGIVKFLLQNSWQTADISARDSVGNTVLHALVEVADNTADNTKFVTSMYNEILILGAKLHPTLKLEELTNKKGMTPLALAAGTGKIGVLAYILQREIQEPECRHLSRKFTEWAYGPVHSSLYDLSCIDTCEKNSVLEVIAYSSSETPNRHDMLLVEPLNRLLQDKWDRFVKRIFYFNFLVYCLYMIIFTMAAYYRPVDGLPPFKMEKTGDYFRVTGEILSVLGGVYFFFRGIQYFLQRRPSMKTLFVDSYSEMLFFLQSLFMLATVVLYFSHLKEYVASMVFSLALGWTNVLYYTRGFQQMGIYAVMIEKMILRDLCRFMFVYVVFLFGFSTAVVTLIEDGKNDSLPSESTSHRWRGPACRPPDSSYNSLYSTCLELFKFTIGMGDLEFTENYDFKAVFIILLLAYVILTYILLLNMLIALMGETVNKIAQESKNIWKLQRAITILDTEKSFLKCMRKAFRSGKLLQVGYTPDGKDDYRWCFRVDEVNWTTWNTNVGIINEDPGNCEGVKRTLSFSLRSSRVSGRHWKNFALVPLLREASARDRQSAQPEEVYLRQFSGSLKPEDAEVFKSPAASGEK
Protocol: as §1, §2

Row | SMILES | IC50 (human DRG VR1; E-capsaicin as agonist) | IC50 (human DRG VR1; RTX as agonist) | IC50 (human pancreas VR1A; IC50 Capsazepine, VR1A stable cell line, RTX as agonist, N=4) | IC50 (human pancreas VR1A; read-out: IC50 Capsazepine) | fold lower IC50 value with RTX as an agonist compared to capsaicin as an agonist (human pancreas VR1A; text does not say whether VR1 or VR1A is meant) | EC50 (human DRG VR1) | EC50 (human pancreas VR1A)
1 | Oc1cc2c(cc1O)CN(C(=S)NCCc1ccc(Cl)cc1)CCC2 [Capsazepine, capsazepine] | 194 ± 0.06 nM | 140 ± 0.8 nM | 25 ± 0.26 nM | 60 ± 0.1 nM | approximately 5 fold |  | 
2 | C=C(C)[C@]12C[C@@H](C)[C@@]34O[C@](Cc5ccccc5)(O[C@@H]1[C@@H]3C=C(COC(=O)Cc1ccc(O)c(OC)c1)C[C@]1(O)C(=O)C(C)=C[C@@H]41)O2 [RTX, resiniferatoxin] |  |  |  |  |  | 1.6 ± 0.17 nM | 5 ± 0.08 nM
